In article PMC10241580, “Bioassay-Guided Isolation of Antiplasmodial Compounds from Hypericum lanceolatum Lam. (Hypericaceae) and Their Cytotoxicity and Molecular Docking” (BioMed Research International, 2023) one finds IC50 and Antiplasmodial potency data, which are given here for four compounds.

Data set [1] is described as follows: In vitro cytotoxicity MTT assay on P388 cell line. It is filed as cell-based. As to conditions: mouse, mean ± SD (n = 3). As to the method:
The in vitro study of the cytotoxicity potency of the isolated compounds was performed using the P388 (mouse leukaemia) cell line which was obtained from the American Type Culture Collection (ATCC) (Rockville, MD, USA). The cells were arranged in 96-well plates at a density of 10^4 cells per well containing […] of culture medium and then cultured for 24 h in the opti-MEM medium supplemented with 2 mM glutamine (Gibco, Grand Island, NY, USA), streptomycin (50 μg/mL), penicillin (50 U/mL), and 5% fetal calf serum (Gibco). After the cell cultures were maintained at 37°C in an atmosphere saturated with 5% CO2, the four tested compounds prepared at the concentration of 1 mg/mL by dissolving in the mixture DMSO/culture medium (1 : 9) were diluted in cell culture to reach the required concentrations (ranging from 1 to 100 μg/mL). The in vitro cytotoxic activity of the tested compounds was evaluated using the MTT assay for leukaemia cells.

Data set [2] relates to Plasmodium parasite. The arrangement: method as in doi:10.1016/j.sajb.2022.11.021. As to conditions: in words; cited from earlier work.

≈ marks a conversion by molar mass, not a printed value.

In data set [1] (P388 leukaemia cells), `O=c1c2cc(O)c(O)cc2oc2cc(O)cc(O)c12` [Compound 2, norathyriol] gave a concentration for half-maximal inhibition (IC50) of 21.8 ± 0.3 µg/mL (≈ 83.8 µM).

Regarding `C[C@H]1[C@H](C)CC[C@]2(C(=O)O)CC[C@]3(C)C(=CC[C@@H]4[C@@]5(C)CC[C@H](O)C(C)(C)[C@@H]5CC[C@]43C)[C@H]12` [Compound 4, ursolic acid], the Antiplasmodial potency result in data set [2] was “weak”. For the same compound, 2.5 ± 0.6 µg/mL (≈ 5.47 µM) corresponded to half-maximal inhibition in data set [1] (P388 leukaemia cells) (IC50).

In data set [1] (P388 cells), `O=c1c2ccc(O)cc2oc2cccc(O)c12` [Compound 1, 1,6-dihydroxyxanthone] returned an IC50 of 17.6 ± 0.7 µg/mL (≈ 77.1 µM).

The compound `C=C(C)[C@@H]1CC[C@]2(C(=O)O)CC[C@]3(C)[C@H](CC[C@@H]4[C@@]5(C)CC[C@H](O)C(C)(C)[C@@H]5CC[C@]43C)[C@@H]12` [Compound 3, betulinic acid] gave a concentration for half-maximal inhibition (IC50) in data set [1] (P388 cells) of 6.8 ± 2.2 µg/mL (≈ 14.9 µM).

The term IC50 denotes the concentration that inhibits the measured activity by half. A high value points to lower potency.
